Reference: patent publication US20030158089A1, “Administrative agents via the SMVT transporter” (priority 2002, published 2003)
pIC50: −log10 of the molar value. Read-outs that look alike come from different tables or passages of the source.

How the values were obtained:
human SMVT (SLC5A6) = target: T1, human SMVT (SLC5A6) (Homo sapiens, UniProt Q9Y289); experiment: Two-electrode voltage-clamp transport currents in SMVT-expressing Xenopus oocytes; assay type: cell-based; conditions: for Vmax as a % of Biotin Vmax: % max response relative to biotin, transporter-expressing oocytes, test compound 0.5 mM
T1 construct: The complete open reading frame of human SMVT (SLC5A6) was amplified; expressed in transfected cells; host or cells: Xenopus oocytes injected with 10-30 ng cRNA transcribed from the pMO plasmid
T1 sequence (Q9Y289 1-635): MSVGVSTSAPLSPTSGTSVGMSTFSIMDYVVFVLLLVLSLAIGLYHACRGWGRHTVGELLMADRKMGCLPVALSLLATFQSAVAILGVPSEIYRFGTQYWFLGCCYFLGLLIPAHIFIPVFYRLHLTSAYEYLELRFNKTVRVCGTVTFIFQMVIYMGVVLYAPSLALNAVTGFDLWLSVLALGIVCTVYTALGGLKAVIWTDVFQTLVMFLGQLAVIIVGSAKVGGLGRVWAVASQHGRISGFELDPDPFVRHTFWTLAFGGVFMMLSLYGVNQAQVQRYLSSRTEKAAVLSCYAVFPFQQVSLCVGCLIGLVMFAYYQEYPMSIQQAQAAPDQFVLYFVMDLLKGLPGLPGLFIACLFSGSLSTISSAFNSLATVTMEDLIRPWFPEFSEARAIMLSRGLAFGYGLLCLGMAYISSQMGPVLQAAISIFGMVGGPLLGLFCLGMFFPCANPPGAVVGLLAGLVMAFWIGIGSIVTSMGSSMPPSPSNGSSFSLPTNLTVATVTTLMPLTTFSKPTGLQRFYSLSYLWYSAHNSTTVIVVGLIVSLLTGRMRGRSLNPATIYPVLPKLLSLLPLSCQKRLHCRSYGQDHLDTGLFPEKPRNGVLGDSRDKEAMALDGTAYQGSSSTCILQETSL
Description: “Vmax” and “KM” of a compound for a transporter (e.g., the SMVT transporter) are defined in accordance with convention. Vmax is the number of molecules of compound transported per unit time at saturating concentration of the compound. KM is the concentration of the compound at which the compound is transported at half of Vmax. In general, a high value Of Vmax is desirable for a substrate of a transporter. A low value of KM is desirable for transport of low concentrations of a compound, and a high value of KM is desirable for transport of high concentrations of a compound. Vmax is affected both by the intrinsic turnover rate of a transporter (molecules/transporter protein) and transporter density in plasma membrane that depends on expression level. For these reasons, the intrinsic capacity of a compound to be transported by a particular transporter is usually expressed as the ratio (or percent) of the Vmax of the compound/Vmax of a control compound known to be a substrate for the transporter.
cRNA for oocyte expression was prepared by linearization of plasmid cDNA and in vitro transcription using T7 polymerase (Epicentre Ampliscribe kit). Xenopus oocytes were prepared and maintained as previously described (Collins et al., PNAS […]:5456-5460 (1997)) and injected with 10-30 ng RNA. Transport currents were measured 2-6 days later using two-electrode voltage-clamp (Axon Instruments). All experiments were performed using a modified oocyte ringers solution (90 mM NaCl, 2 mM KCl, 1.8 mM CaCl2, 1 mM MgCl2, and 10 mM NaHEPES, pH 7.4; in Na^+-free solutions […] choline chloride was substituted for NaCl). The membrane potential of oocytes was held at −60 mV and current traces acquired using PowerLab software (ADInstruments). Full 7-concentration dose-responses were performed for each compound. […] Half-maximal concentrations were calculated using non-linear regression curve fitting software (Prism) with the Hill co-efficient fixed to 1. To ensure that currents were specific for the over-expressed transporter, all compounds were tested against uninjected oocytes.

hSMVT = target: T2, hSMVT (Homo sapiens, UniProt Q9Y289); experiment: Radiolabeled competition assay in SMVT-expressing CHO cells; assay type: cell-based
T2 sequence (Q9Y289 1-635): T1 sequence (Q9Y289 1-635)
Description: The complete open reading frame of human SMVT (SLC5A6) was amplified from human cDNA prepared from intestinal mRNA. Gene-specific oligonucleotide primers were designed against Genbank sequences (NM-021095). Amplified PCR products were cloned into a modified version of the mammalian expression vector pcDNA3 (termed pMO) that was engineered to contain the 5′ and 3′ untranslated regions from the Xenopus beta-globin gene. All clones were completely sequenced and tested for function by transient transfection in HEK293 cells.
Stable clones of CHOK1 cells were obtained by electroporation, selection in G418, and single cell sorting using FACS ([…] cell sorting, Cytomation). Stable clones expressing SMVT were identified by enhanced uptake of radiolabeled substrates. For cell uptake studies, stable CHOK1 clones were seeded into polylysine coated 96-well microtiter plates and grown for 2-3 days. Cells were incubated with experimental solutions (combinations of radiolabeled and unlabeled compounds) for 30 minutes at room temperature, washed four times, and lysed in scintillation solution. Accumulation of radiolabeled molecules was measured in a microtiter scintillation plate reader (Perkin Elmer). Inhibition constants (IC50s) were calculated using curve-fitting software (Prism).

[1] = rat, 2 μM, pH 7.4
Description: (§1) The stability of conjugates were evaluated in one or more in vitro systems using a variety of tissue preparations following methods known in the art. […] Each preparation was incubated with test compound at 37° C. for one hour. Aliquots (50 μL) were removed at 0, 30, and 60 min and quenched with 0.1% trifluoroacetic acid in acetonitrile. Samples were then centrifuged and analyzed by LC/MS/MS.

[2] = rat, 2 μM
Description: as §1

in vivo = conditions: male, Sprague-Dawley, rat, po
Description: Test compounds were administered as an intravenous bolus injection or by oral gavage to groups of four to six adult male Sprague-Dawley rats (weight approx 250 g) as solutions in water or water/ethanol (90:10). The doses ranged between 10 and 200 mg per kg body weight (i.e. 0.04-0.8 mmole/kg). Animals were fasted overnight before the study and for 4 hours post-dosing. Blood samples (1.0 mL) were obtained via a jugular vein cannula at intervals over 24 hours after oral dosing. Blood was processed immediately for plasma and plasma was frozen at −80° C. until analyzed.
Concentrations of test compound in plasma were determined using an API 2000 LC/MS/MS instrument equipped with an Agilent 1100 binary pump and an Agilent autosampler. The column was a Zorbax XDB C8 4.6*150 mm column at room temperature. The mobile phases were 0.1% formic acid (A) and acetonitrile with 0.1% formic acid (B). The gradient condition was: 5% B for 1 min, increasing to 98% B in 3 min and maintained for 2.5 min. […] The peaks were integrated using Analyst 1.1 quantitation software.
Oral bioavailability (F) was determined by comparison of the area under the concentration versus time curve (AUC) following oral administration of the conjugate or intravenous administration of the parent agent at equimolar doses.

Pancreatin = Pancreatin stability; assay type: in vitro ADME, porcine; conditions: 1 % (w/v) pancreatin, pH 7.5, 37° C, 5 μM
Description: Pancreatin Stability: Stability studies were conducted by incubating conjugate (5 μM) with 1 % (w/v) pancreatin (Sigma, P-1625, from porcine pancreas) in 0.025 M Tris buffer containing 0.5 M NaCl (pH 7.5) at 37° C. for 60 min. The reaction was stopped by addition of 2 volumes of methanol. After centrifugation at 14,000 rpm for 10 min, the supernatant was removed. and analyzed by LC/MS/MS.

[3] = In vitro cleavage of conjugate in rat liver S9; conditions: Rat Liver S9 (0.5 mg/mL), NADPH, 37° C, 2.0 μM
Description: as §1

[4] = In vitro cleavage of conjugate in rat plasma; conditions: 37° C, 2.0 μM
Description: as §1

[5] = In vitro cleavage of conjugate in human plasma; conditions: 37° C, 2.0 μM
Description: as §1

[6] = In vitro cleavage of conjugate in human liver S9; conditions: Human Liver S9 (0.5 mg/mL), NADPH, 37° C, 2.0 μM
Description: as §1

[7] = Caco-2 homogenate S9 stability; assay type: in vitro ADME; conditions: Caco-2 S9 (0.5 mg protein per mL), 37° C, 5 μM
Description: Caco-2 Homogenate S9 Stability: Caco-2 cells were grown for 21 days prior to harvesting. Culture medium was removed and cell monolayers were rinsed and scraped off into ice-cold 10 mM sodium phosphate/0.15 M potassium chloride, pH 7.4. Cells were lysed by sonication at 4° C. using a probe sonicator. Lysed cells were then transferred into 1.5 mL centrifuge vials and centrifuged at 9000 g for 20 min at 4° C. The resulting supernatant (Caco-2 cell homogenate S9 fraction) was aliquoted into 0.5 mL vials and stored at −80° C. until used.
For stability studies, conjugate (5 μM) was incubated in Caco-2 homogenate S9 fraction (0.5 mg protein per mL) for 60 min at 37° C. Concentrations of intact conjugate and released drug were determined at zero time and 60 minutes using LC/MS/MS.

human or rat SMVT = conditions: voltage-clamped Xenopus oocytes; cited from earlier work
[8] = radiolabeled competition assay in SMVT-expressing CHO cells, read-out: IC50

Compound: NCC1(CC(=O)O)CCCCC1 [Gabapentin, reference compound]
- Vmax as a % of Biotin Vmax (human SMVT (SLC5A6)): 0%
- pIC50 (hSMVT): < 3.30

Compound: N-acetyl-D-Lys(ε-biotin)-D-Arg-D-Arg-D-Arg-D-Gln-D-Arg-D-Arg-D-Lys-D-Lys-D-Arg-NH2 [biotinylated decapeptide, reference compound]
- specific sodium-dependent current (SMVT substrate activity) (human SMVT (SLC5A6); 20 μM peptide, presence and absence of 100 mM Na+): no specific, sodium-dependent current

Compound: CC(C)(C)C(=O)OCOC(=O)NCC1(CC(=O)O)CCCCC1 [(1), 1-{[(α-Pivaloyloxymethoxy)carbonyl]aminomethyl}-1-Cyclohexane Acetic Acid]
- Vmax as a % of Biotin Vmax (human SMVT (SLC5A6)): 21%
- pIC50 (hSMVT; [8]): 3.35

Compound: CC(OC(=O)NCC1(CC(=O)O)CCCCC1)OC(=O)C(C)C (stereo not drawn) [(6), 1-{[(α-Isobutanoyloxyethoxy)carbonyl]aminomethyl}-1-Cyclohexane Acetic Acid]
- % of Drug Released from Conjugate after 60 min [1]: 52%
- Vmax as a % of Biotin Vmax (human SMVT (SLC5A6)): 46%
- % of Drug Released from Conjugate after 60 min [2]: 23%
- pIC50 (hSMVT; [8]): 4.00

Compound: CC(C)(CO)[C@@H](O)C(=O)NCCC(=O)[O-].[Na+] [pantothenate, sodium pantothenate]
- plasma concentration at the highest dose (in vivo): ~4000 ng/mL
- bioavailability (in vivo; 25 mg/kg): 35%
- bioavailability (in vivo; 200 mg/kg): 10%

Compound: CCC(=O)OC(OC(=O)NCC1(CC(=O)O)CCCCC1)C(C)C (stereo not drawn) [(9), 1-{[(α-Propanoyloxyisobutoxy)carbonyl]aminomethyl}-1-Cyclohexane Acetic Acid]
- % of Drug Released from Conjugate after 60 min (Pancreatin): 25%
- % of Drug Released from Conjugate after 60 min [3]: 62%
- Vmax as a % of Biotin Vmax (human SMVT (SLC5A6)): 19%
- % of Drug Released from Conjugate after 60 min [4]: 69%
- % of Drug Released from Conjugate after 60 min [5]: 7%
- % of Drug Released from Conjugate after 60 min [6]: 83%
- % of Drug Released from Conjugate after 60 min [7]: 65%

Compound: O=C(O)CCCC[C@@H]1SC[C@@H]2NC(=O)N[C@@H]21 [biotin]
- plasma concentration at the highest dose (in vivo): ~4000 ng/mL
- bioavailability (in vivo; 25 mg/kg): 100%
- bioavailability (in vivo; 200 mg/kg): 27%
- Km (human or rat SMVT): 5 to 20 µM
